Data: publication PMC3192407, “Both Basic and Acidic Amino Acid Residues of IpTxa Are Involved in Triggering Substate of RyR1” (Journal of Biomedicine and Biotechnology, 2011)
Where two headings read alike, the source gives them in different places. Bridge positions count the residues as written; N and C are the ends. Peptide text beside a SMILES is read from it.

Key:
[1] = target: T1, rabbit skeletal RyR1 (native RyR1 in HSR) (Oryctolagus cuniculus, UniProt P11716); experiment: Planar lipid bilayer single-channel recording, native RyR1 in HSR; assay type: biochemical; details: for EC50: -30 mV
T1 construct: tested using native RyR1 in rabbit skeletal HSR; from tissue; host or cells: rabbit fast-twitch back and leg muscles (heavy SR vesicles)
Procedure: A heavy fraction of fragmented SR vesicles (HSR) containing junctional SR was prepared from rabbit fast-twitch back and leg muscles as described previously.
(§1) Single-channel recordings of rabbit skeletal RyR1 incorporated into planar lipid bilayers were carried out as described previously. Lipid bilayers, consisting of brain tissue phosphatidylethanolamine and phosphatidylserine (1 : 1) in decane (20 mg/mL) were formed across a hole of approximately 200 μm diameter. Thinning of the bilayer was monitored by bilayer capacitance. The basic composition of the cis/trans solution consisted of 300 mM cesium methanesulfonate, 10 mM Tris/Hepes (pH 7.2), 2 mM EGTA, and 1.998 mM CaCl2 ([Ca^2+]free = 10 μM). [Ca^2+]free was calculated using the “Chelator” program (Theo Schoenmaker). Cs^+ was selected as the charge carrier to ensure precise control of free [Ca^2+], to increase the channel conductance, and to avoid any contribution from potassium channels present in the SR membrane. Chloride channels were inhibited by using the impermeant anion methanesulfonate. Incorporation of ion channels was carried out as described by Miller and Racker and confirmed by recording the characteristically high single-channel conductance of RyRs. The trans side was maintained at ground and the cis side was clamped at −30 mV relative to the ground. After addition of the IpTxa to the cis chamber, the single channel data were collected at −30 mV for 2–5 min. […] Recordings were filtered with an 8-pole low-pass Bessel filter at 1 kHz and digitalized through a Digidata 1200 series interface (Axon Instruments). Data acquisition and analysis were done with the Axon Instruments software, pClamp v7.0.
(§2) Data were analyzed using the Hill equation described previously:
(§3) (1) Psubstate=(Psubstate, max )/[1+(EC50/[IpTxa])^nH] orPo=(Po, max )/[1+(EC50/[IpTxa])^nH], where (Po, max ) is the Po observed at saturating concentrations of IpTxa, EC50 is the IpTxa concentration for which 50% of Po, max is obtained and nH is the Hill coefficient. Also, Psubstate, max is the Psubstate observed at saturating concentrations of IpTxa, EC50 is the IpTxa concentration for which 50% of Psubstate, max is obtained, and nH is the Hill coefficient. The probability of full open state of the channel (Po) was defined as the ratio of the time spent in the open state to the total time exclusive of time spent in the substate. The probability to obtain substate (Psubstate) was calculated as the time spent in the substate divided by a given total recording time. The durations of the substate were obtained by manual positioning of the cursors and constructing all point histograms. Mean duration of substate was measured by total substate time divided by total substate frequencies.
(§4) Results are given as means ± SE. Significant differences were analyzed using Student's t-test. Differences were considered to be significant when P < 0.05. The fitting of the data to the graphs were carried out using the software, Origin v7.
To examine how IpTxa modifies RyR1 activity, RyR1 in HSR incorporated in planar lipid bilayers was tested in the presence or absence of synthetic wild-type IpTxa. The chamber solutions for both cis (cytosolic) and trans (luminal) sides included 300 mM cesium methanesulfonate and 10 mM Tris-Hepes (pH 7.2). 10 μM free Ca^2+ was added to the cis side to activate the incorporated RyR1. After an addition of IpTxa to the cis chamber, the single channel gating properties were recorded at a holding potential of −30 mV for over 2 min at each toxin concentration. […] To examine the effects of IpTxa on full open state, we calculated the probability to obtain the full open state (Po) as the time spent in the open state divided by the total time exclusive of the time spent in the substate. The time for recorded Po was in the range of 30 s–2 min. […] The steady-state Po was 0.18 ± 0.02 at 10 μM Ca^2+. […]

[2] = target: T2, purified rabbit RyR1 (Oryctolagus cuniculus, UniProt P11716); experiment: Planar lipid bilayer single-channel recording, purified RyR1; assay type: biochemical; details: purified RyR1, toxin cis, 6-100 nM, -30 mV, 10 μM Ca^2+, Hill fit, means ± SE of 4–10 experiments; read-out: EC50 for Psubstate
T2 construct: we added IpTxa to purified RyR1 incorporated into planar lipid bilayers; from tissue; host or cells: rabbit skeletal muscle (inferred; purified from HSR)
Procedure: as §1, §2, §3, §4
To determine whether the activation of native RyR1 in SR by IpTxa was due to a direct activation of RyR1 or due to an indirect activation through other proteins associated to RyR1, we added IpTxa to purified RyR1 incorporated into planar lipid bilayers (Figure 3(a)). […] Purity of RyR1 at the final purification step was verified by Coomassie blue staining (Supplementary Figure 2).
Figure 3 Effects of IpTxa on purified rabbit RyR1 incorporated in planar lipid bilayers. (a) Single channel activity of purified RyR1 incorporated in planar lipid bilayers at 10 μM Ca^2+ with or without IpTxa (6–100 nM) was recorded. Single channel currents are shown as downward deflections from the closed level (indicated by c). The holding potential was −30 mV. (b) The plot of Po of purified RyR1 versus various concentrations of IpTxa is shown. (c) The plot of Psubstate of purified RyR1 versus various concentrations of IpTxa is shown. The results are shown as the means ± SE for 7 experiments. […]

[3] = native RyR1 in SR, toxin cis, 6-100 nM, [Ca^2+]free 10 μM, pH 7.2, Hill fit, means ± SE of 3–9 experiments, read-out: EC50 for Psubstate

T1 sequence (P11716 whole entry): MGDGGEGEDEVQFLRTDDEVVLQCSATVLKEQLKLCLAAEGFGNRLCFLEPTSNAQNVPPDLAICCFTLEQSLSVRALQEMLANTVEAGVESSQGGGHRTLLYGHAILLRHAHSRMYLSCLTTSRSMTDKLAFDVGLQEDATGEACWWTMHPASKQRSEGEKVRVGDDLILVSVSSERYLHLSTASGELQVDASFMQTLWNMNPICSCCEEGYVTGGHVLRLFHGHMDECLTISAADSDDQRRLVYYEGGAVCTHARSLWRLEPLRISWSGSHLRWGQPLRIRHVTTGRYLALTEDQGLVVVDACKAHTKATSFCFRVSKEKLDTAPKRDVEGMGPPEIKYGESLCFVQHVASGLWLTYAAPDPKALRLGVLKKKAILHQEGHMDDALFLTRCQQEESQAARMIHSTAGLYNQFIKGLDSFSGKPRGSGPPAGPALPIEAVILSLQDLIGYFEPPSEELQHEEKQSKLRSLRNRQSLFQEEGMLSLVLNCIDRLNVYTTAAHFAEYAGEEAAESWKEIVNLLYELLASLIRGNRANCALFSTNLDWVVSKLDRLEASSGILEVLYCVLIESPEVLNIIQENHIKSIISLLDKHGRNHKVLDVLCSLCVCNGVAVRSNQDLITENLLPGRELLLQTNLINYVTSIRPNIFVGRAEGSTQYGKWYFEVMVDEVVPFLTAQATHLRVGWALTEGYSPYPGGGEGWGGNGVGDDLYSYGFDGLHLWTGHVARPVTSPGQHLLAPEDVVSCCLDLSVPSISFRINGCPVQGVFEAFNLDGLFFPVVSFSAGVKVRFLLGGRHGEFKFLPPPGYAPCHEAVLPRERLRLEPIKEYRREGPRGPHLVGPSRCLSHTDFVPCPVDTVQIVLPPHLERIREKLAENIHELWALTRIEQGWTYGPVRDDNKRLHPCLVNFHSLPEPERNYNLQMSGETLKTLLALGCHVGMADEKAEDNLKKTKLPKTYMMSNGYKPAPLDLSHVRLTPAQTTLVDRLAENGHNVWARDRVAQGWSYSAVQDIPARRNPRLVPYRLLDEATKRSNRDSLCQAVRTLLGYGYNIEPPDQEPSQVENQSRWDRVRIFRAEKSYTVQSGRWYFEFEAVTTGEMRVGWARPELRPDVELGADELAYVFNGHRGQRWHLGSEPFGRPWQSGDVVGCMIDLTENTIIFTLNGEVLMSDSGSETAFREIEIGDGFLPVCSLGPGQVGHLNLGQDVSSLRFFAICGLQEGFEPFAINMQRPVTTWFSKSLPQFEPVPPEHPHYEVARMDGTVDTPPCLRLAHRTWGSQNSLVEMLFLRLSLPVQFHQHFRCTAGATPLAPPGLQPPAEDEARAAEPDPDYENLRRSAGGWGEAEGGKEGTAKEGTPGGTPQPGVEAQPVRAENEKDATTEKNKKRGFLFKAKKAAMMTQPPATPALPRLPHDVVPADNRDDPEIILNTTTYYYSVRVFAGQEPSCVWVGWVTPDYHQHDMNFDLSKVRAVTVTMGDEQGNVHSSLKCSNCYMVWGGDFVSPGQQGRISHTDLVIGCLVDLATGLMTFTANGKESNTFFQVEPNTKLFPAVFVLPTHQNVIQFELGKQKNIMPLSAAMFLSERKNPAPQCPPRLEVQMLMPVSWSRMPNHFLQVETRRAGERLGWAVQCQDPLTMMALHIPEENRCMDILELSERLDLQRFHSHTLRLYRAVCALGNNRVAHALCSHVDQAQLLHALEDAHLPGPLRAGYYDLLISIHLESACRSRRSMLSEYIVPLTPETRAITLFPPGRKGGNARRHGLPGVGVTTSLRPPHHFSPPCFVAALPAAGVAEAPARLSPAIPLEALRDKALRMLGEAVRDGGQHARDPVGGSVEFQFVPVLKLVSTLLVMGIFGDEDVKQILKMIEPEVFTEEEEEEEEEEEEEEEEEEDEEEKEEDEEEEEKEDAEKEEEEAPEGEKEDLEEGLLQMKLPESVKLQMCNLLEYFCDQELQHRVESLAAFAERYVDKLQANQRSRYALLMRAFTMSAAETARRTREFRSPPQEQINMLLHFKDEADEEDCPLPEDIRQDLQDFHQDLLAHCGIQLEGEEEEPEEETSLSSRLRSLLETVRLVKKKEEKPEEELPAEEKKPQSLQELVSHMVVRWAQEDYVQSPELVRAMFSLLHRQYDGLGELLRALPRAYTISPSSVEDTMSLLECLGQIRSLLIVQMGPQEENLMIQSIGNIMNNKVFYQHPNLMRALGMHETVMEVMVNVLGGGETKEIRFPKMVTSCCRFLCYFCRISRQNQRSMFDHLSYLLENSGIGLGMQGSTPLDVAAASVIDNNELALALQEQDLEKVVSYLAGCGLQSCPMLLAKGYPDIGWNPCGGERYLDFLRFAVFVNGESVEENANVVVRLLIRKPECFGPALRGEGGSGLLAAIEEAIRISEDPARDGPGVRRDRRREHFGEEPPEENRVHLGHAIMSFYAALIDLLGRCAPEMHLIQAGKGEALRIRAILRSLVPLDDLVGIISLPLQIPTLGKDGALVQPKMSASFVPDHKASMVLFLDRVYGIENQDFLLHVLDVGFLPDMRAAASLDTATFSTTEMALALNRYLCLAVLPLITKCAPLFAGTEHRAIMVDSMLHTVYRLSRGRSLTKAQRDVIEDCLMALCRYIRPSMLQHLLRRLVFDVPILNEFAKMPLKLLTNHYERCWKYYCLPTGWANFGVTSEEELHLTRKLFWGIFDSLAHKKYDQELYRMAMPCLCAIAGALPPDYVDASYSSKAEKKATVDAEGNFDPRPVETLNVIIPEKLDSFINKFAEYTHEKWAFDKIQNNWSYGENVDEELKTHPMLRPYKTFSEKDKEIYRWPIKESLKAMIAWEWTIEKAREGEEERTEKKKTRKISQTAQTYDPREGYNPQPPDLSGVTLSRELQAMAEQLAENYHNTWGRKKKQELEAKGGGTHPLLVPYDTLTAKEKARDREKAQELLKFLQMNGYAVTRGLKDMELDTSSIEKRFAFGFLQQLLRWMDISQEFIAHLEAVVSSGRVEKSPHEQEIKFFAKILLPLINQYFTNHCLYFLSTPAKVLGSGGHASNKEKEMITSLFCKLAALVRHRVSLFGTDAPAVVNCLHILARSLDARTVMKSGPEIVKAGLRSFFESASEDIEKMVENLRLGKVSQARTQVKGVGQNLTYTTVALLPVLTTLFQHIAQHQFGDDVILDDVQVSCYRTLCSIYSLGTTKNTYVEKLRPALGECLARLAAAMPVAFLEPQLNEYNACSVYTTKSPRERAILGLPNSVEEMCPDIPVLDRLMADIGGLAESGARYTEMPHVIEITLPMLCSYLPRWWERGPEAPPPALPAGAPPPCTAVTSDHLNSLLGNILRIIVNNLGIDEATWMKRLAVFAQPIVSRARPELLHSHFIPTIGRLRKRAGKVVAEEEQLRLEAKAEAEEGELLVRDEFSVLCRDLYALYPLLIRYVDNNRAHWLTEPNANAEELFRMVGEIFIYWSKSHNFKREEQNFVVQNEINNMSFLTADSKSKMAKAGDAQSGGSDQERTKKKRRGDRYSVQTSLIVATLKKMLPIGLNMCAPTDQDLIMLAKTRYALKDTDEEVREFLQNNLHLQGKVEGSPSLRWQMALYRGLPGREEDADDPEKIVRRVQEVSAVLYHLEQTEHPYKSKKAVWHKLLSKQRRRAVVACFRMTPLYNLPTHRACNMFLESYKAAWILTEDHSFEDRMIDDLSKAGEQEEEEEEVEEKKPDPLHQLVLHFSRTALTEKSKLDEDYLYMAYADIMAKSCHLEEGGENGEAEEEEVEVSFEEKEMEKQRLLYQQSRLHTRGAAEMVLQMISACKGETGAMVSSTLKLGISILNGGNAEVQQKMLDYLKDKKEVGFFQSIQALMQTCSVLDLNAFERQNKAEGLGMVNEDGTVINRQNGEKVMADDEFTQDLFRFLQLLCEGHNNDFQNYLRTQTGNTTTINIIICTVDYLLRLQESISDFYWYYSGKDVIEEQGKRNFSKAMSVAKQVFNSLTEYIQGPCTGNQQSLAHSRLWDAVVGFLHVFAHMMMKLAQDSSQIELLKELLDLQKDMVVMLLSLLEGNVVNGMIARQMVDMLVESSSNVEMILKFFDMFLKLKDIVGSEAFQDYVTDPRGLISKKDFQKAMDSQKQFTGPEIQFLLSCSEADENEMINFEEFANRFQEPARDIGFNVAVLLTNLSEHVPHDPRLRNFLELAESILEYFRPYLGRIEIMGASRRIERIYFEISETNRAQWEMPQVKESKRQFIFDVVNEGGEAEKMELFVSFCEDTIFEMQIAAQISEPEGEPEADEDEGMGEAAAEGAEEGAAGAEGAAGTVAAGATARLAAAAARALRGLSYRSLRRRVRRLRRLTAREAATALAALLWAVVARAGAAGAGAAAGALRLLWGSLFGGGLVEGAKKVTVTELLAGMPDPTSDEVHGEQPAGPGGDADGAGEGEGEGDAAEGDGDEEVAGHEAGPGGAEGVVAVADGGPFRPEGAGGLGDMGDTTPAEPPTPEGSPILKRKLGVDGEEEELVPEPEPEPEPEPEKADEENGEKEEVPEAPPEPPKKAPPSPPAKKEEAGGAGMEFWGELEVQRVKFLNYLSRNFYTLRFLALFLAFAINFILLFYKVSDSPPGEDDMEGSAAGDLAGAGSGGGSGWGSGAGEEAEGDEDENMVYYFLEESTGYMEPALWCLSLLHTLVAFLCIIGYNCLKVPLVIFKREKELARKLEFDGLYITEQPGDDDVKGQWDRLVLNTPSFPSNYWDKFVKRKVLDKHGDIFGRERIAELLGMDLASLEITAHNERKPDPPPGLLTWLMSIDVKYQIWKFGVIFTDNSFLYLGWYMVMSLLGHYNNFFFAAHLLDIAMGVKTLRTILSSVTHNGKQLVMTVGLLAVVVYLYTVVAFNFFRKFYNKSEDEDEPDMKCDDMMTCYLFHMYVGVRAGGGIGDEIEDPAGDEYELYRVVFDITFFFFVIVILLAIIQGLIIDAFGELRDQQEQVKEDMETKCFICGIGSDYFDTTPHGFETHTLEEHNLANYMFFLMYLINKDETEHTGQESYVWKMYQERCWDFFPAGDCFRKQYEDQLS
T2 sequence (P11716 whole entry): as above

CC(C)C[C@@H]1NC(=O)[C@H](Cc2c[nH]cn2)NC(=O)[C@@H]2CCCN2C(=O)[C@H](CC(C)C)NC(=O)[C@@H](NC(=O)[C@H](CC(=O)O)NC(=O)CN)CSSC[C@@H]2NC(=O)[C@@H]3CSSC[C@@H](C(=O)N[C@@H](CCCNC(=N)N)C(=O)O)NC(=O)[C@H](CCCNC(=N)N)NC(=O)[C@H](CCCCN)NC(=O)[C@H](CCC(=O)O)NC(=O)[C@H](C)NC(=O)[C@H](CC(N)=O)NC(=O)[C@H]([C@@H](C)O)NC(=O)CNC(=O)[C@H](CCCNC(=N)N)NC(=O)[C@H](CCCNC(=N)N)NC(=O)[C@H](CCCCN)NC(=O)[C@H](CSSC[C@H](NC(=O)[C@H](CCCNC(=N)N)NC(=O)[C@H](CCCCN)NC1=O)C(=O)N[C@@H](CCCCN)C(=O)N[C@@H](C)C(=O)N[C@@H](CC(=O)O)C(=O)N[C@@H](CC(N)=O)C(=O)N[C@@H](CC(=O)O)C(=O)N3)NC(=O)[C@H](CCCCN)NC(=O)[C@H](CCCCN)NC(=O)CNC2=O [Wild type, Imperatoxin A] (H-GDCLPHLKRCKADNDCCGKKCKRRGTNAEKRCR-OH; disulfide 3-17, 10-21, 16-32)
EC50 ([1]; native RyR1, toxin cis, 10 μM Ca^2+, Hill fit, means ± SE of ten experiments, read-out: EC50 for Po): 17.4 ± 4.67 nM
EC50 [1, 3]: 23.3 ± 2.37 nM
EC50 [2]: 17.1 ± 2.31 nM

CC(C)C[C@@H]1NC(=O)[C@H](Cc2c[nH]cn2)NC(=O)[C@@H]2CCCN2C(=O)[C@H](CC(C)C)NC(=O)[C@@H](NC(=O)[C@H](CC(=O)O)NC(=O)CN)CSSC[C@@H]2NC(=O)[C@@H]3CSSC[C@@H](C(=O)N[C@@H](CCCNC(=N)N)C(=O)O)NC(=O)[C@H](CCCNC(=N)N)NC(=O)[C@H](CCCCN)NC(=O)[C@H](CCC(=O)O)NC(=O)[C@H](C)NC(=O)[C@H](CC(N)=O)NC(=O)[C@H]([C@@H](C)O)NC(=O)CNC(=O)[C@H](CCCNC(=N)N)NC(=O)[C@H](C)NC(=O)[C@H](CCCCN)NC(=O)[C@H](CSSC[C@H](NC(=O)[C@H](CCCNC(=N)N)NC(=O)[C@H](CCCCN)NC1=O)C(=O)N[C@@H](CCCCN)C(=O)N[C@@H](C)C(=O)N[C@@H](CC(=O)O)C(=O)N[C@@H](CC(N)=O)C(=O)N[C@@H](CC(=O)O)C(=O)N3)NC(=O)[C@H](CCCCN)NC(=O)[C@H](CCCCN)NC(=O)CNC2=O [R23A] (H-GDCLPHLKRCKADNDCCGKKCKARGTNAEKRCR-OH; disulfide 3-17, 10-21, 16-32)
EC50 [1, 3]: 19.5 ± 9.36 nM

CC(C)C[C@@H]1NC(=O)[C@H](Cc2c[nH]cn2)NC(=O)[C@@H]2CCCN2C(=O)[C@H](CC(C)C)NC(=O)[C@@H](NC(=O)[C@H](CC(=O)O)NC(=O)CN)CSSC[C@@H]2NC(=O)[C@@H]3CSSC[C@@H](C(=O)N[C@@H](CCCNC(=N)N)C(=O)O)NC(=O)[C@H](CCCNC(=N)N)NC(=O)[C@H](CCCCN)NC(=O)[C@H](CCC(=O)O)NC(=O)[C@H](C)NC(=O)[C@H](CC(N)=O)NC(=O)[C@H](C)NC(=O)CNC(=O)[C@H](CCCNC(=N)N)NC(=O)[C@H](CCCNC(=N)N)NC(=O)[C@H](CCCCN)NC(=O)[C@H](CSSC[C@H](NC(=O)[C@H](CCCNC(=N)N)NC(=O)[C@H](CCCCN)NC1=O)C(=O)N[C@@H](CCCCN)C(=O)N[C@@H](C)C(=O)N[C@@H](CC(=O)O)C(=O)N[C@@H](CC(N)=O)C(=O)N[C@@H](CC(=O)O)C(=O)N3)NC(=O)[C@H](CCCCN)NC(=O)[C@H](CCCCN)NC(=O)CNC2=O [T26A] (H-GDCLPHLKRCKADNDCCGKKCKRRGANAEKRCR-OH; disulfide 3-17, 10-21, 16-32)
EC50 of Psubstate compared with wild type (in words) ([1]; native RyR1 (Figure 2(b)), Figure 5(b), purified RyR1, also cited in sentence): dramatically decreased EC50 of Psubstate
EC50 [1, 3]: 9.98 ± 1.92 nM

CC(C)C[C@@H]1NC(=O)[C@H](Cc2c[nH]cn2)NC(=O)[C@@H]2CCCN2C(=O)[C@H](CC(C)C)NC(=O)[C@@H](NC(=O)[C@H](C)NC(=O)CN)CSSC[C@@H]2NC(=O)[C@@H]3CSSC[C@@H](C(=O)N[C@@H](CCCNC(=N)N)C(=O)O)NC(=O)[C@H](CCCNC(=N)N)NC(=O)[C@H](CCCCN)NC(=O)[C@H](CCC(=O)O)NC(=O)[C@H](C)NC(=O)[C@H](CC(N)=O)NC(=O)[C@H]([C@@H](C)O)NC(=O)CNC(=O)[C@H](CCCNC(=N)N)NC(=O)[C@H](CCCNC(=N)N)NC(=O)[C@H](CCCCN)NC(=O)[C@H](CSSC[C@H](NC(=O)[C@H](CCCNC(=N)N)NC(=O)[C@H](CCCCN)NC1=O)C(=O)N[C@@H](CCCCN)C(=O)N[C@@H](C)C(=O)N[C@@H](CC(=O)O)C(=O)N[C@@H](CC(N)=O)C(=O)N[C@@H](CC(=O)O)C(=O)N3)NC(=O)[C@H](CCCCN)NC(=O)[C@H](CCCCN)NC(=O)CNC2=O [D2A] (H-GACLPHLKRCKADNDCCGKKCKRRGTNAEKRCR-OH; disulfide 3-17, 10-21, 16-32)
EC50 [1, 3]: 28.6 ± 14 nM

CC(C)C[C@@H]1NC(=O)[C@H](Cc2c[nH]cn2)NC(=O)[C@@H]2CCCN2C(=O)[C@H](CC(C)C)NC(=O)[C@@H](NC(=O)[C@H](CC(=O)O)NC(=O)CN)CSSC[C@@H]2NC(=O)[C@@H]3CSSC[C@@H](C(=O)N[C@@H](CCCNC(=N)N)C(=O)O)NC(=O)[C@H](CCCNC(=N)N)NC(=O)[C@H](CCCCN)NC(=O)[C@H](CCC(=O)O)NC(=O)[C@H](C)NC(=O)[C@H](CC(N)=O)NC(=O)[C@H]([C@@H](C)O)NC(=O)CNC(=O)[C@H](CCCNC(=N)N)NC(=O)[C@H](CCCNC(=N)N)NC(=O)[C@H](CCCCN)NC(=O)[C@H](CSSC[C@H](NC(=O)[C@H](CCCNC(=N)N)NC(=O)[C@H](CCCCN)NC1=O)C(=O)N[C@@H](C)C(=O)N[C@@H](C)C(=O)N[C@@H](CC(=O)O)C(=O)N[C@@H](CC(N)=O)C(=O)N[C@@H](CC(=O)O)C(=O)N3)NC(=O)[C@H](CCCCN)NC(=O)[C@H](CCCCN)NC(=O)CNC2=O [K11A] (H-GDCLPHLKRCAADNDCCGKKCKRRGTNAEKRCR-OH; disulfide 3-17, 10-21, 16-32)
EC50 [1, 3]: 21.8 ± 3.49 nM

CC(C)C[C@@H]1NC(=O)[C@H](Cc2c[nH]cn2)NC(=O)[C@@H]2CCCN2C(=O)[C@H](CC(C)C)NC(=O)[C@@H](NC(=O)[C@H](CC(=O)O)NC(=O)CN)CSSC[C@@H]2NC(=O)[C@@H]3CSSC[C@@H](C(=O)N[C@@H](CCCNC(=N)N)C(=O)O)NC(=O)[C@H](CCCNC(=N)N)NC(=O)[C@H](CCCCN)NC(=O)[C@H](CCC(=O)O)NC(=O)[C@H](C)NC(=O)[C@H](CC(N)=O)NC(=O)[C@H]([C@@H](C)O)NC(=O)CNC(=O)[C@H](CCCNC(=N)N)NC(=O)[C@H](CCCNC(=N)N)NC(=O)[C@H](C)NC(=O)[C@H](CSSC[C@H](NC(=O)[C@H](CCCNC(=N)N)NC(=O)[C@H](CCCCN)NC1=O)C(=O)N[C@@H](CCCCN)C(=O)N[C@@H](C)C(=O)N[C@@H](CC(=O)O)C(=O)N[C@@H](CC(N)=O)C(=O)N[C@@H](CC(=O)O)C(=O)N3)NC(=O)[C@H](CCCCN)NC(=O)[C@H](CCCCN)NC(=O)CNC2=O [K22A] (H-GDCLPHLKRCKADNDCCGKKCARRGTNAEKRCR-OH; disulfide 3-17, 10-21, 16-32)
EC50 [1, 3]: 18.5 ± 2.88 nM
